# Source: US20110206638A1, “COMPOSITIONS AND METHODS FOR REDUCING THE MUTATION RATE OF VIRUSES” (priority 2010, published 2011)
# “Also recorded” adds a separate entry of the source.
# Assays:
# [1] = test system: Con1 replicon cells; assay: 8-OHG oxidative RNA damage in SgPC2 Con1 replicon cells (ELISA); type: cell-based, human; conditions: for level of 8-OHG in ethanol and BSO-treated replicon cells with inhibitor: 0.5% ethanol or 20 μM BSO daily for 48 hr, 10 μM dipyridyl, 2 mM GSH ester, 5 μM PIH, 0.1 mM DETAPAC, 1 mM L-NMA, DPI, 25 μM DADS
# Protocol: Total RNA was isolated using Trizol (Invitrogen) and analyzed for 8-OH-guanosine (8-OH-G) by northwestern, as described (Shan X et al. (2003) J. Neurosci. 23:4913-4921). Briefly, RNA was size-fractionated by agarose gel electrophoresis, transferred to a nylon membrane, blocked with 1% BSA, incubated sequentially with monoclonal anti-8-OH-G/dG antibodies (QED Bioscience, Inc.) and then with goat anti-mouse HRP-conjugated secondary antibody (Santa Cruz Biotechnology), and signals were detected, using an ECL kit (Amersham). In addition, RNA was digested with nuclease P1 (Sigma, US Biological) and alkaline phosphatase (Promega) and analyzed for 8-OH-G content using RNA Damage Kit (Cell Biolabs, Inc.), following manufacturer's protocols.
# Total RNA was isolated using Trizol (Invitrogen) and analyzed for 8-OHG by ELISA. Briefly, RNA was incubated with 10 U DNase I (GE Healthcare), 10 U nuclease P1 (Sigma or US Biological), and 10 U alkaline phosphatase (Promega) and analyzed for 8-OHG content with RNA Damage Kit (Cell Biolabs, Inc.) and 8-OHG standards, following manufacturer's protocols.
# [2] = test system: subgenomic HCV replicon of genotype 1b (Con1S1179I), NS5A region; assay: NS5A sequencing of HCV RNA, nucleotide and amino acid substitution rates in Con1 replicon cells (Example 2); type: cell-based, Hepatitis C virus; conditions: for amino acid substitution rate in the BSO group with co-treatment: 20 μM BSO daily for 48 hr; for amino acid substitution rate in the BSO group with co-treatment / amino acid substitution rate in the ethanol group with co-treatment / nt. substitution rates of ethanol and BSO groups with co-treatment / dn/ds ratio in the BSO group with co-treatment: 10 μM dipyridyl or 2 mM GSH ester; for amino acid substitution rate in the ethanol group with co-treatment: 0.5% ethanol daily for 48 hr; for nt. substitution rates of ethanol and BSO groups with co-treatment: 0.5% ethanol or 20 μM BSO daily for 48 hr; for percentage of sites undergoing positive selection with co-treatment: FIG. 8A; for dn/ds ratio of the control group with co-treatment: from 0.31 without inhibitor; for dn/ds ratio in the BSO group with co-treatment: from 0.72 without inhibitor, 48 hr; for Nt. change per site: Con1 replicon cells, once daily for 48 hrs, T7 baseline subtracted, ethanol 0.5% v/v, BSO 20 μM, H2O2 100 μM, acetaldehyde 10 μM; for Fold increase (Amino acid change per site): over control, 48 hrs
# Protocol: Huh7 cell clones (SgPC2 cells) supporting continuous replication of a subgenomic HCV replicon of genotype 1b (Con1S1179I sequence) were used (Choi J. et al. (2004) Hepatology 39:81-89; Blight K J et al. (2000) Science 290:1972). Subgenomic replicons support the HCV RNA genome replication by the viral replicase but no virus is formed. The in vitro transcription, transfection of the viral RNA, and Huh7 human hepatoma cell culture were performed as described (Choi J. et al. (2004) Hepatology 39:81-89; Blight K J et al. (2000) Science 290:1972). All biochemicals including ethanol (molecular biology grade), acetaldehyde, BSO, H2O2, dipyridal, and GSH ethyl ester were obtained from SigmaAldrich except PIH, which was synthesized according to published methods (Kicic A et al., (2001) Cancer 92: 3093-3110; Ponka P. et al., (1979) FEBS Lett 97: 317-321).
# Total RNAs were collected using Trizol (Invitrogen). Then, the NS5A region (nt. 4612 to 6013 of Con1 replicon) was reverse transcribed/amplified with AccuScript High Fidelity RT-PCR System (Agilent). The reverse primer used for reverse transcription and PCR amplification was 5′-[…]-3′ (SEQ ID NO: 1), and the forward primer was 5′-[…]-3′ (SEQ ID NO: 2). The XbaI and HindIII restriction enzyme sites are underlined. The cDNA products were cloned into pUC19 via HindIII and XbaI sites and sequenced at the Joint Genome Institute (Livermore, Calif.) and University of California Berkeley Sequencing (Berkeley, Calif.). Sequences were aligned against Con1(S1179I) sequence, using BioEdit/MEGA 4.0 Molecular Evolutionary Genetics Analysis software. Cumulative synonymous and nonsynonymous mutations were computed using Synonymous Nonsynonomous Analysis Program (SNAP; www.hcv.lanl.gov). The […] ratio was calculated using SNAP. Amino acid substitution trends were analyzed by position with MutationCounter, a mutation counting program, developed for this project. The sequences were compared with 1,212 genotype 1b NS5A sequences pooled from the Lawrence Livermore HCV sequence database (www.hcv.lanl.gov) which included sequences from the European, Asian, and Russian databases. Sequences harboring gaps, undetermined nucleotides, or incomplete NS5A sequences were removed prior to the analysis.
# To test whether ethanol can affect the HCV RNA sequence, Con1 replicon cells that support genotype 1b subgenomic HCV RNA replication were incubated with ethanol (0.5% v/v), BSO (20 μM), H2O2 (100 μM), or acetaldehyde (10 μM) once daily for 48 hrs with a change of the cell culture medium at the time of each treatment. Acetaldehyde and H2O2 are generated during hepatic metabolism of ethanol. BSO, by inhibiting GSH biosynthesis, mimics GSH depletion seen in hepatitis C patients. GSH participates in detoxification reactions that remove reactive species such as H2O2 and acetaldehyde. Thus, by decreasing GSH, BSO also amplifies the effects of endogenous ROS and RNS, allowing one to test the effects of endogenous ROS/RNS. Then, the RNA was collected, and the NS5A region corresponding to nt. 4612 to 6013 of Con1 replicon was reverse transcribed using AccuScript reverse transcriptase and amplified with PfuUltra (Agilent). PfuUltra is a high fidelity DNA polymerase with an error rate of 4.3×10^−9; AccuScript reverse transcriptase has an error rate of 1.61×10^−7. Then, the cDNA products were cloned into pUC19 and sequenced by the Sanger method.
# [3] = test system: subgenomic HCV replicon of genotype 1b (Con1), NS5A region; assay: NS5A sequencing of HCV RNA, mutation frequency in SgPC2 Con1 replicon cells (Example 1); type: cell-based, Hepatitis C virus; conditions: H2O2 100 μM, acetaldehyde 10 μM, once daily for 48 hrs
# Protocol: Huh7 cell clones (SgPC2 cells) supporting continuous replication of a subgenomic HCV replicon of genotype 1b (Con1 sequence) were used (Choi J. et al. (2004) Hepatology 39:81-89; Blight K J et al. (2000) Science 290:1972). The subgenomic replicons support HCV RNA replication but no virus is formed. The in vitro transcription, transfection of HCV RNA, and Huh7 human hepatoma cell culture were performed by methods known in the art and as previously described (Choi J. et al. (2004) Hepatology 39:81-89; Blight K J et al. (2000) Science 290:1972).
# After various treatments, total RNAs were collected using Trizol (Invitrogen). Then, the NS5A region (nt. 4612 to 6013 of Con1 replicon) was reverse transcribed/amplified with AccuScript High Fidelity RT-PCR System (Stratagene). The cDNAs were cloned into pUC19 and sequenced at the Joint Genome Institute (Livermore, Calif.). Sequences were aligned against Con1(S11791) sequence, using BioEdit/MEGA 4.0 Molecular Evolutionary Genetics Analysis software.
# To test whether ethanol can increase the mutation rate of HCV, SgPC2 Con1 replicon cells that support genotype 1b subgenomic HCV RNA replication (FIG. 2B) were incubated with ethanol (0.5%), BSO (amplifies the effects of endogenous ROS/RNS by decreasing the level of glutathione in the cell), H2O2 (100 μM), or acetaldehyde (10 μM) once daily for 48 hrs. Then, the RNAs were collected, and the NS5A region (nt. 4612 to 6013 of Con1 replicon) was reverse transcribed/amplified with AccuScript High Fidelity RT-PCR System (Stratagene). Then, the cDNAs were cloned into pUC19 and sequenced at the Joint Genome Institute (Livermore, Calif.). T7 HCV RNA transcript, initially used to transfect the Con1 cells, was also sequenced to assess the basal level of RNA heterogeneity, such as due to any heterogeneity of the DNA template prior to in vitro transcription as well as any errors generated during transcription and RT-PCR cloning. The experiments were focused on NS5A because of its moderate level of diversity and its role in viral replication as well as interferon resistance. Sequences were aligned against Con1(S1179I) sequence, using BioEdit/MEGA 4.0 Molecular Evolutionary Genetics Analysis software.
compound,measurement,setting,value
"C=CCSSCC=C [DADS, diallyl disulfide]",level of 8-OHG in ethanol and BSO-treated replicon cells with inhibitor,[1],reduce; also recorded: decreased
"O=C(O)CN(CCN(CC(=O)O)CC(=O)O)CCN(CC(=O)O)CC(=O)O [DETAPAC, 1,1,4,7,7-diethylenetriaminepentaacetic acid]",level of 8-OHG in ethanol and BSO-treated replicon cells with inhibitor,[1],decreased
same,decrease of 8-OHG levels in BSO-treated SgPC2 cells,[1]; DETAPAC 0.1 mM,19.7±0.2%
same,decrease of 8-OHG levels in control SgPC2 cells,[1]; DETAPAC 0.1 mM,28.0±0.3%
same,decrease of 8-OHG levels in ethanol-treated SgPC2 cells,[1]; DETAPAC 0.1 mM,13.8±0.3%
"c1ccc2c(c1)[I+]c1ccccc1-2 [DPI, diphenylene iodonium]",level of 8-OHG in ethanol and BSO-treated replicon cells with inhibitor,[1],reduce; also recorded: decreased
"c1ccc(-c2ccccn2)nc1 [Dipyridyl, α,α′-Dipyridyl]",dn/ds ratio in the ethanol group with co-treatment,[2],0.46
same,amino acid substitution rate in the BSO group with co-treatment,[2],effectively abolished
same,amino acid substitution rate in the ethanol group with co-treatment,[2],significantly attenuated
same,nt. substitution rates of ethanol and BSO groups with co-treatment,[2],no longer any significant increase over the control
same,percentage of sites undergoing positive selection with co-treatment,[2],decreased
same,dn/ds ratio of the control group with co-treatment,[2],did not affect
same,dn/ds ratio in the BSO group with co-treatment,[2],0.46
same,level of 8-OHG in ethanol and BSO-treated replicon cells with inhibitor,[1],significantly decreased
"CCOC(=O)CNC(=O)[C@H](CS)NC(=O)CC[C@H](N)C(=O)O [GSH ester, glutathione ethyl ester]",dn/ds ratio in the ethanol group with co-treatment,[2],0.43
same,amino acid substitution rate in the BSO group with co-treatment,[2],not significantly above the control
same,amino acid substitution rate in the ethanol group with co-treatment,[2],not significantly above the control
same,nt. substitution rates of ethanol and BSO groups with co-treatment,[2],not significantly above the control
same,percentage of sites undergoing positive selection with co-treatment,[2],decreased
same,dn/ds ratio of the control group with co-treatment,[2],0.24
same,dn/ds ratio in the BSO group with co-treatment,[2],0.21
same,level of 8-OHG in ethanol and BSO-treated replicon cells with inhibitor,[1],reduce; also recorded: effectively decreased
"OO [H2O2, hydrogen peroxide]",Nt. change per site,[2],5.28×10^−4 nt. change per site
same,Fold increase (Amino acid change per site),[2],about 10 fold
same,increase in mutation frequency vs control,[3],not statistically significant
"CC(=O)O.CNC(=N)NCCC[C@H](N)C(=O)O [L-NMA, N^G-methyl-L-arginine acetate]",level of 8-OHG in ethanol and BSO-treated replicon cells with inhibitor,[1],reduce; also recorded: decreased
[Cl][Ni][Cl] [NiCl2],fold increase in 8-OHG content over the control,"[1]; 48 hrs, 0.5% (v/v) ethanol, 20 μM BSO, 250 μM NiCl2 daily",55.4±3.1 fold
"Cc1ncc(CO)c(C=NNC(=O)c2ccncc2)c1O [PIH, pyridoxal isonicotinoyl hydrazone]",level of 8-OHG in ethanol and BSO-treated replicon cells with inhibitor,[1],decreased
same,level of 8-OHG in ethanol and BSO-treated replicon cells with inhibitor,[1]; listed as pyridoxal isonicotinoyl hydrazone,significantly decreased
CC=O [acetaldehyde],Nt. change per site,[2],4.25×10^−4 nt. change per site
same,Fold increase (Amino acid change per site),[2],did not increase
same,"8-OH-G in Con1 replicon (SgPC2) cells, daily treatment for 2 weeks","[1]; 0.1% ethanol, 5 μM acetaldehyde, 20 μM BSO",significant increases
same,increase in mutation frequency vs control,[3],not statistically significant
